# Laboratory results published in patent US11447534B2, “Peptide complex with immunodulatory and anti-inflammatory function” (NATIONAL INSTITUTE OF IMMUNOLOGY, priority 2018, dated 2022).
# Columns and labels:
# EOC20 microglial cells = assay: F-actin confocal microscopy of unstimulated EOC20 microglia; type: cell-based; settings: serum starved, 1 hour
# Description: To determine the morphological changes in microglia upon exposure to A-O complex, F-actin confocal microscopy was performed. For that poly-L-lysine coated coverslips were placed in the 24 well culture dishes containing 1 ml of complete media and cells were seeded over the cover slips. […] Post treatment, the cell culture media was then removed and cells were washed thrice with 1×PBS (pH 7.4). Cells were fixed in 4% PFA for 10 min at room temperature and then washed thrice with 1×PBS (pH 7.4). Cells were then exposed to Phalloidin-actin (F-actin) antibody for 20 min in the dark. Thereafter, cells were washed twice with 1×PBS (pH7.4) and mounted using DAPI Fluormount (Invitrogen, Carlsbad, Calif., USA). Cells were imaged on a Zeiss LSM510 META laser-scanning confocal microscope. A PlanApochromat 63/1.4 oil-immersion DIC M27 objective (Zeiss) was used for image acquisition. [Concentration of Phalloidin-actin antibody: 300 U of Phalloidin-actin (Invitrogen, Carlsbad, USA) was dissolved in 1.5 ml methanol to yield a concentration of 200 U/ml or 6.6 μM. 1 U of phalloidin is equal to 5 μl of methanolic stock].
# [1] = system: co-culture of osteoblast (MC3T3-E1) and osteoclast (from RAW264.7); assay: Osteoblast-osteoclast co-culture, mRNA by Real Time PCR; type: cell-based, mouse; settings: 24 hours of incubation, vs basal
# Description: Effect of A-O complex on bone cells: To determine whether A-O complex modulated bone cells, A-O complex was added to a co-culture system of osteoblast and osteoclast. MC3T3-E1 sub-clone 4 (pre-osteoblast cell line derived from new born mouse calvaria purchased from American Type Culture Collection) were cultured in α-MEM (Invitrogen, USA) supplemented with 10% fetal bovine serum and 1% anti-anti (Invitrogen, USA). Osteoblasts within the 4th and 10th passages were used for this study. For cell culture experiments 2×10^6 cells were seeded in 60 mm Petri plates. To initiate differentiation, cells were treated with 10 mM β-glycerophosphate and 50 μg/ml ascorbic acid. Murine RAW264.7 (macrophage) cells were used for generating osteoclasts. The cells were maintained in RPMI 1640 media supplemented with glutamine (2 mM) and FBS (10%). No trypsination was performed and subculture was done using a cell scraper after cultures reached 65-70% confluency. For generation of osteoclasts from RAW264.7 cells, cells of density 12000 cells per cm^2 were stimulated with 25 ng per ml of RANKL (directly with seeding) for 72-96 hours after which large multinucleated cells are seen and confirmed using TRAP5b assay. […] Thereafter the co-culture was exposed to A-O complex and the mRNA levels of osteocalcin and IGF-1 were analyzed by Real Time PCR.
# CD36 scavenger receptor = assay: Flow cytometry of cell surface CD36 in macrophages; type: cell-based, murine; settings: 1 hour exposure, FACS
# Description: To determine the immunomodulatory effect of A-O complex, serum starved macrophages were exposed to the complex. Macrophages (1×10^6 cells) were serum starved for 30 min after which cells were exposed to A-O complex. After 1 hour, cells were washed with 1×PBS (pH 7.4) and harvested using cell dissociation solution. Then the cells were suspended in ice cold staining buffer (100 μl) and centrifuged at 1000 rpm for 5 min at 4° C. The cells were resuspended in 100 μl ice cold staining buffer for 10 min at 2-8° C. and pellet resuspended in 50 μl staining media. To this 2 μl of Fc block or anti-mouse CD16/CD32 was added for 10 mins and washed with staining buffer. The cells were resuspended in 50 μl of staining buffer and incubated with fluorescent-tagged CD36 antibody (e-biosciences) for 25-30 min on ice. The excess stain was removed by washing and pelleting down using staining buffer thrice by spinning and removal of staining buffer. The cell suspension was fixed 1:1 ratio (staining buffer:fixative) and analysed within 48 h in ARIA3 DIVA software version 6.1. Further, expression of MHC-II, and CD-36, was also determined in the microglial cells via qPCR. […] Following amplification, fold changes in gene expression versus β-actin (reference) analysis was determined using the 2^ΔΔCT(Livak) method.
# RAW264.7 macrophages = assay: qPCR of Cd74, Cd36 in serum starved macrophages; type: cell-based, murine; settings: unstimulated RAW264.7 macrophages, with respect to basal
# Abeta42 = target: T1, Abeta42 (Homo sapiens, UniProt P05067); assay: Abeta42 fibrillization in situ (TEM, Thioflavin T binding assay); type: biochemical; settings: Abeta42 100 μM + Glu-OC 3 ng vs Abeta42 control, 8th hour
# T1 construct: of Abeta 1-42 peptide; Molecular weight = 4514.1; purchased r-peptide
# T1 sequence (P05067 672-713): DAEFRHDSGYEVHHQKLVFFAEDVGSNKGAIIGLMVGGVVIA
# Description: For this study, different concentrations of Glu-OC viz. […] After keeping the samples for 5 minutes, the excess was washed off with ultrapure water and surplus sample and water were wicked away using absorbent paper. The samples were negatively stained using 1% uranyl acetate stain, dried and analyzed in a transmission electron microscope CM10 Philips operated at 80 kV. […] ThT assay measures the changes in fluorescence intensity of ThT upon binding to amyloid fibrils. […] The resulting ThT fluorescence intensities of samples were measured at an emission wavelength of 480 nm and excitation wavelength of 440 nm and 5 nm slit width using a Jobin Vyon Horiba Fluoromax-4 spectrofluorimeter. The inner filter effect was taken into account using the Equation: Fc=F×anti log[(Aex+Aem)/2] where Fc is the corrected flourescence and F is apparent fluorescence, Aex and Aem are the absorbances of the samples at excitation and emission wavelengths respectively.
substance,measurement,setting,value
"A-O complex: peptide complex of 100 μM Abeta1-42 (SEQ ID NO: 1) and 3 ng Glu-OC (SEQ ID NO: 2), incubated at 37° C. for 4 hours",microglia morphology (F-actin),EOC20 microglial cells,rounded morphology with projections indicative of activation
same,mRNA transcripts of IGF-1,[1],significantly higher
same,mRNA transcripts of osteocalcin,[1],significantly higher
same,cell surface protein expression of CD36 receptor,CD36 scavenger receptor,increased cell surface protein expression
same,increase in mRNA level of Cd36,RAW264.7 macrophages,8 fold
same,increase in mRNA level of Cd74 (MHC-II),RAW264.7 macrophages,3 fold
same,ThT fluorescence emission,Abeta42,high enhancement of fluorescence emission of ThT
